For orientation: EC50 means the midpoint of the concentration-response curve. A lower EC50 goes with a more potent agent. As usually defined, the Ki is a measure of affinity in units of concentration, obtained from inhibition or displacement. A lower Ki goes with tighter binding.

In experiment [1] the target is T1, human RXRα (Homo sapiens, UniProt P19793).
T1 sequence (P19793 1-462): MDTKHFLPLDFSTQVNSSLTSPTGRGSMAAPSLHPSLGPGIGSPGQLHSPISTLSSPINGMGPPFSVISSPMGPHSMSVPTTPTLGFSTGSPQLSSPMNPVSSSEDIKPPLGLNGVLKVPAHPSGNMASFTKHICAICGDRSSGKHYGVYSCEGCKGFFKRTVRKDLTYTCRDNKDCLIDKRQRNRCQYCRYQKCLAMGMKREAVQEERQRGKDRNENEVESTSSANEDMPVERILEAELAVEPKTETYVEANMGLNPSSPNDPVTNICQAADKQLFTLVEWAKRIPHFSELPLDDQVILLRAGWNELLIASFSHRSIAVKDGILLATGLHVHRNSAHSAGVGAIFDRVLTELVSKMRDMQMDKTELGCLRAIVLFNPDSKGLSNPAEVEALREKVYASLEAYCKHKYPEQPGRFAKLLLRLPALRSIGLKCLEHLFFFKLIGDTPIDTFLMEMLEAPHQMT
Particulars: 10^−7 M, 24 h, Caco-2 cells, versus ethanol control (Figure 4).

The next experiment addresses T2, human RARα (Homo sapiens, UniProt P10276).
T2 sequence (P10276 1-462): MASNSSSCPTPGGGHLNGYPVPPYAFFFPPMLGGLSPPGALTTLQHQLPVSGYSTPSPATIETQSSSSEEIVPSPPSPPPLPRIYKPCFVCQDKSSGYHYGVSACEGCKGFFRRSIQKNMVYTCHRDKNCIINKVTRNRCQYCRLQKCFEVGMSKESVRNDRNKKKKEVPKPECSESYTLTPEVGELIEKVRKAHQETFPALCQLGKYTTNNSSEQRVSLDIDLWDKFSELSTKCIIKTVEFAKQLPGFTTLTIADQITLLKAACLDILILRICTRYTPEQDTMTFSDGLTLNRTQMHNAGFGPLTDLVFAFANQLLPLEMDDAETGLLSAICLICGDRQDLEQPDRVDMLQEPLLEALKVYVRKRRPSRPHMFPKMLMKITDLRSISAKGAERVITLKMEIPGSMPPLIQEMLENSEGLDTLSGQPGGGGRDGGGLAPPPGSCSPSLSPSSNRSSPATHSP
T2 sequence (P19793 1-462 partner): T1 sequence (P19793 1-462)
The note with it: RARE-luciferase reporter, Caco-2 cells. On the technique in general: A reporter such as luciferase makes a cellular process visible.

Experiment [2] concerns the target T3, RXR (Homo sapiens, UniProt P19793).
T3 sequence (P19793 227-462 limits assumed): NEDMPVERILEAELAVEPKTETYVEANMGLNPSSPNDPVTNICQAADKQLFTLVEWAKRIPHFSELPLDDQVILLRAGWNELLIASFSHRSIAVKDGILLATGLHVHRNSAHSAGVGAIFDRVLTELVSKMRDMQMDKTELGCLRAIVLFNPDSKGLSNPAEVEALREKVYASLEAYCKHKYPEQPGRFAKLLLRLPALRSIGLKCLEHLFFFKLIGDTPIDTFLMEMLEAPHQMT
The experiment is described as follows: cell-based.

Experiment [3] has as its target T1, human RXRα. The experiment is described as follows: biochemical.
For experiment [4], the target named is T3, RXR. The note with it: for RXR binding and homodimerization relative to 1 (luciferase output): 10^−7 M, 24 h, Caco-2 cells, compound 1 set to 1.0 (Figure 3).
Experiment [5] has as its system Human T-cell lymphoma (CTCL) cells (Hut78). The note with it: 24 h, versus ethanol vehicle control (Figure 5).
In experiment [6] the target is T1, human RXRα. The note with it: based on Ki values of Table 1.

Take “5-(1-(1,2,3,4-Tetrahydro-1,1,4,4,6-pentamethylnaphthalen-7-yl)vinyl)benzene-1,3-dioic Acid [Compound 14]”: the “RXR-mediated transcriptional activity (RXRE-luciferase)” value (shortened to “RXR-mediated transcriptional activity”) on human RXRα [1] was “did not display significant RXR binding and activation”.
On to `C=C(c1ccc(C(=O)O)c([N+](=O)[O-])c1)c1cc2c(cc1C)C(C)(C)CCC2(C)C` [Compound 16, 4-(1-(1,2,3,4-Tetrahydro-1,1,4,4,6-pentamethylnaphthalen-7-yl)vinyl)-2-nitrobenzoic Acid], for which the “RXR-mediated transcriptional activity” value on human RXRα [1] is “transcriptional activity significantly above the ethanol control levels”. Also, the “RAR agonist activity compared with 1” value on human RARα is recorded as “slightly greater RAR agonist activity”. Further, the EC50 on RXR [2] worked out at 200 nM. The molecule further came in with a Ki at human RXRα [3] of 81 nM.
On to `C=C(c1cc2c(cc1C)C(C)(C)CCC2(C)C)c1ccc(C(=O)O)cc1F` [Compound 18, 3-Fluoro-4-(1-(1,2,3,4-tetrahydro-1,1,4,4,6-pentamethylnaphthalen-7-yl)vinyl)benzoic acid], for which the “RXR binding and homodimerization relative to 1 (luciferase output)” value at RXR [4] is “about half as well as 1”. Also, the “RXR-mediated transcriptional activity” value at human RXRα [1] was “transcriptional activity significantly above the ethanol control levels”. Besides, the “RAR agonist activity compared with 1” value at human RARα was “significantly lower RAR binding”. Besides, at RXR [2], the EC50 turned out to be 420 nM. Further, the affinity at human RXRα [3], expressed as Ki, was 161 nM.
For the molecule `Cc1cc2c(cc1C(=O)c1ccc(C(=O)O)cc1F)C(C)(C)CCC2(C)C` [Compound 19, 3-Fluoro-4-(1-(3,5,5,8,8-pentamethyl-5,6,7,8-tetrahydronaphthalen-2-yl)carbonyl)benzoic acid], the “RXR binding and homodimerization relative to 1 (luciferase output)” value at RXR [4] is “does not bind to RXR”. Moreover, the “apoptotic activity (caspases 3 and 7)” value in experiment [5] is reported as “almost no apoptotic activity”.
For `C=C(c1ccc(C(=O)O)c(F)c1)c1cc2c(cc1C)C(C)(C)CCC2(C)C` [Compound 20, 2-fluoro-4-(1-(1,2,3,4-tetrahydro-1,1,4,4,6-pentamethylnaphthalen-7-yl)vinyl)benzoic acid], on human RXRα [6], the “apparent RXR binding affinity greater than 1” value is 75%. Moreover, the “increase in efficacy based on EC50 values” at RXR [4] (versus 1, Table 1) is 20%. Besides, the “RXR-mediated transcriptional activity” value at human RXRα [1] is “transcriptional activity significantly above the ethanol control levels”. The “RAR agonist activity compared with 1” value on human RARα was “approximately equal to 1”. Further, on RXR [2], the midpoint of the response, the EC50, lay at 43 nM. The molecule also had a Ki at human RXRα [3] of 12 nM.
`Cc1cc2c(cc1C(=O)c1ccc(C(=O)O)c(F)c1)C(C)(C)CCC2(C)C` [Compound 21, 2-fluoro-4-(1-(3,5,5,8,8-pentamethyl-5,6,7,8-tetrahydronaphthalen-2-yl)carbonyl)benzoic acid]: the “RXR binding and homodimerization relative to 1 (luciferase output)” value on RXR [4] was “a small degree of RXR binding and homodimerization relative to 1”.

Source of the values: PMC2765782 (Journal of medicinal chemistry, 2009).
